The values that follow come from patent US11926826B2, “Twist signaling inhibitor compositions and methods of using the same” (City of Hope, priority 2016, dated 2024).

One series deals with Ov8GFP-TWIST1 cells. Briefly: SRB assay, cisplatin plus PI3K inhibitor LY294002. The format is cell-based, human. The method, then:
Sulphorhodamine B assays. Cells were plated at 5,000 per well in normal medium in 96 well plates (100 μL/well), n=6 per drug concentration, per condition. Cells were allowed to adhere overnight, and then cisplatin was added. Cisplatin was prepared at 2× concentration in 100 μL normal medium, and then added to cells to yield 200 μL at 1×. Following 3 day incubation with cisplatin, medium was removed and cells were fixed with 10% trichloroacetic acid (TCA, 100 μL/well) at 4° C. for 1 hr. TCA was then removed and wells were rinsed with 200 μl water and allowed to air dry 10 min. […] Plates were air dried and excess SRB adhered to the walls of the wells was removed with a cotton swab. Finally, SRB was solubilized in 10 mM Tris base (200 μL/well) and absorbance was measured at 570 nm on a SpectraMax Plus plate reader (Molecular Devices, Sunnyvale, CA). Readings for each condition were normalized to untreated wells from the same condition. Cisplatin concentrations were adjusted to fit experimental demands. […] For Akt studies, the PI3K inhibitor LY294002 was used to inhibit Akt activation (FIGS. 25A-25D), and was obtained from Cell Signaling Technology (Danvers, MA).

The subject of series [1] is TWIST. The experiment in a line: TWIST knockdown after MSN delivery of siRNA in ovarian cancer cell lines. Type of series: cell-based. On the procedure:
MSN design and delivery. Mesoporous silica nanoparticles (MSNs) were synthesized utilizing the sol-gel method as described previously. First, 250 mg 95% cetyltrimethylammonium bromide (CTAB) was dissolved in 120 ml of water with 875 μl 2M sodium hydroxide solution, at 80° C. Next, 1.2 ml of 98% tetraethylorthosilicate was added. After 15 min, 300 μl of 42% 3-(trihydroxysilyl) propyl methylphosphonate was added, and the mixture was stirred 2 hr. Particles were collected using centrifugation and washed with methanol. Acidic methanol was then used to remove any remaining CTAB surfactants. Zeta potential at 50 μg/mL was 43.75 mV [14]. All chemicals were obtained from Aldrich (St. Louis, MO). Particles were ˜120 nm in diameter, with 2.5 nm pores. Low molecular weight (1.8 kD branched polymer) polyethyleneimine (PEI) was electrostatically attached to the particle surface to provide a positive change to attract negatively charged siRNA [21]. To complex siRNA for in vitro experiments, 10 μl siRNA at 10 μM was mixed with 70 ul MSNs at 500 μg/ml and 20 μl water, and the mixture was incubated overnight at 4° C. on a roller. The following day, 100 μl of the MSN-siRNA complexes was added to each well of a 6-well plate containing 1900 μl normal medium.
(§1) Western Blotting. Following siRNA treatment, cells were pelleted and lysed in RIPA buffer. Protein concentration was determined by BCA assay (Thermo Fisher). Following SDS-PAGE, protein was transferred to Amersham PVDF membrane (Genesee Scientific) using a BioRad Trans-Blot SD semi-dry transfer unit. Blots were then blocked in milk for one hour at room temperature or overnight at 4° C. Incubation with primary antibody took place for one hour at room temperature or overnight at 4° C. Antibodies were diluted in 5% milk, with 0.1-0.2% Tween-20. Antibodies used were TWIST 2c1a (Santa Cruz Biotechnology, Dallas, TX) at 1:250-1:500 dilution, β-Actin, A1978 (Sigma Aldrich, St. Louis, MO) at 1:2500-1:5000 dilution; and Horseradish Peroxidase (HRP) conjugated anti-mouse secondary antibodies. […]

Series [2] relates to TWIST1. Briefly: TWIST1 knockdown after Lipofectamine 2000 transfection of siRNA in MDA-MB-435S cells (western blot). To be noted: unmodified vs passenger-strand modified si419. The format is cell-based, human. On the procedure:
Transient transfection of MDA-MB-435S GFP+ffluc was carried out using LIPOFECTAMINE® 2000 (Thermo Fisher Scientific, Waltham, MA) according to the manufacturer's instructions. LIPOFECTAMINE® 2000 transfection was used to confirm the functionality of the siRNA (si419 and si494) prior to testing their efficacy with MSNs. Transfection of siRNA with MSNs was carried out by incubating the MSNs with the siRNA overnight at 4° C. while rotating the tube constantly. The mixture consisted of 7 parts MSN (diluted to 500 ng/ul in sterile PBS) to 1 part siRNA (diluted to 10 uM). The final concentration for of MSNs and siRNA applied to cells was 17.5 ng/ul and 50 nM, respectively.
Western Blot. Following siRNA treatment described above, cells were lifted from tissue culture wells with 0.25% trypsin, pelleted, and lysed in RIPA buffer. Protein concentration was determined using a BCA Assay (Thermo Fisher Scientific). A total of 30 μg of protein per lane was run on 4% stacking and 12% resolving polyacrylamide gels. Following gel electrophoresis, protein was transferred to Immobilon-P PVDF membrane (Millipore, Billerica, MA) using a Trans-Blot SD Semi-Dry Transfer Cell (Bio-Rad, Hercules, CA). Membranes were then blocked with 5% dry milk dissolved in 1×PBS with 0.1% Tween-20. Antibodies were diluted in blocking buffer (1:250 for anti-TWIST1 and 1:2,500 for anti-Actin). […]

In another series the test system is N-Cadherin mRNA. The experiment in a line: qPCR after YTZ3-15 delivery of siTwist in SUM 1315: N-Cadherin. The format is cell-based, human. The note with it: delivered via YTZ3-15; after seven days. On the procedure: (§2) Cell Culture, Transfection, and Stable Cell Line Production. SUM 1315 breast cancer cells were obtained from ATCC (Manassas, VA). Cells were maintained at 37° C., 5% CO2, and 90% humidity in a tissue culture incubator. Media for SUM 1315 cells consisted of a 50-50 mixture of DMEM and F12 media, supplemented with 5 μg/ml insulin, 10 ng/ml EGF, 5% fetal bovine serum, and 1% penicillin/streptomycin. Cells were passaged using 0.25% trypsin (Genesee Scientific, San Diego, CA) every 2-3 days as they reached confluency. […]
(§3) Quantitative PCR. […] RNA quantity and quality was measured and analyzed (with 260/280 nm and 260/230 nm spectra measurements) using a NanoDrop ND-1000 (Thermo Fisher Scientific, Waltham, MA). […] Quantitative RT-PCR was performed in quadruplicate using Maxima SYBR Green Master Mix (Thermo Fisher Scientific, Waltham, MA) in 25 μl reactions. […] Data were analyzed using Bio-Rad iQ5 software using the 2^−ΔΔ^Ct method and normalized to Actin. […]
In general terms: Quantitative PCR measures a nucleic acid by following its amplification.

In series [3] the test system is TWIST1. Briefly: TWIST1 knockdown after Lipofectamine 2000 transfection in SUM 1315. Type of series: cell-based, human. On the procedure: as §2, §3
Western Blot. […] Cells were pelleted, lysed in RIPA buffer, and protein concentration was determined using the BCA Assay (Thermo Fisher Scientific, Waltham, MA). […]

The next series concerns Vimentin mRNA. Briefly: qPCR after YTZ3-15 delivery of siTwist in SUM 1315: Vimentin. The format is cell-based, human. The note with it: delivered via YTZ3-15; after one day. On the procedure:
as §2, §3

Series [4] has as its system TWIST. The experiment in a line: TWIST knockdown after Lipofectamine 2000 transfection in A2780R (western blot). Type of series: cell-based. The note with it: over three days post transfection. The method, then:
Cell Culture. A2780R and all derivatives of Ovcar8 were grown in RPMI 1640 (Genesee Scientific, San Diego, CA) in a tissue culture incubator at 37° C., 5% CO2, and 90% humidity. Growth medium was supplemented with 10% fetal bovine serum and 1% penicillin/streptomycin. Cells were passaged every 2-4 days using 0.25% trypsin (Genesee Scientific). Where indicated, cells were transfected with Lipofectamine 2000 (Thermo Fisher, Waltham, MA) according to the manufacturer's instructions. A2780R cells are a cisplatin resistant derivative of A2780.
as §1
In general terms: In western blotting, separated proteins are transferred to a membrane and probed.

Series [5] deals with TWIST. The experiment in a line: TWIST knockdown after YTZ3-15 delivery of siRNA in ovarian cancer cell lines. The format is cell-based. On the procedure: PAMAM dendrimer design and delivery. The polyamidoamine (PAMAM) dendrimer used in this study is the […] third generation dendrimer, illustrated in FIG. 16A and previously described. To complex the dendrimer with siRNA, YTZ3-15 at 240 μM was mixed with […] in OptiMEM Low Serum Medium (Thermo Fisher). Upon complexing with siRNA, dendrimers form micelle structures with siRNA at the surface and the hydrophobic tails sequestered in the core (FIG. 16B). 14.6 μl YTZ3-15 and 10 μl siRNA were used per well of a 6-well plate. Final concentrations of YTZ3-15 and siRNA once added to cells were 1.75 μM and 50 nm, respectively. Where indicated, 3.5 μM YTZ3-15 and 100 nm siRNA were used for Ovcar8.
Western Blotting. Following siRNA treatment, cells were pelleted and lysed in RIPA buffer. Protein concentration was determined by BCA assay (Thermo Fisher). Following SDS-PAGE, protein was transferred to Amersham PVDF membrane (Genesee Scientific) using a BioRad Trans-Blot SD semi-dry transfer unit. Blots were then blocked in milk for one hour at room temperature or overnight at 4° C. Incubation with primary antibody took place for one hour at room temperature or overnight at 4° C. Antibodies were diluted in 5% milk, with 0.1-0.2% Tween-20. Antibodies used were TWIST 2c1a (Santa Cruz Biotechnology, Dallas, TX) at 1:250-1:500 dilution, β-Actin, A1978 (Sigma Aldrich, St. Louis, MO) at 1:2500-1:5000 dilution; and Horseradish Peroxidase (HRP) conjugated anti-mouse secondary antibodies. For film-based westerns, Blue Devil film (Genesee Scientific) and ECL Plus chemiluminescent substrate (Thermo Fisher) were used to detect protein. For digital westerns, the Syngene Pxi4 digital blot imager and Michigan Diagnostics FemtoGlow chemilumescent substrate were used.

[iaB] = inverted abasic ribose cap; [2sU] = 2-thio-2'-deoxyuridine; d = 2'-deoxy (DNA); m = 2'-O-methyl; r = 2'-OH (RNA)

Regarding `O=c1cc(N2CCOCC2)oc2c(-c3ccccc3)cccc12` [LY294002], the “greater cell death vs cisplatin alone” value with Ov8GFP-TWIST1 cells (combination with 5 μM cisplatin) is 15%; in the series on Ov8GFP-TWIST1 cells (combination with 10 μM cisplatin), 25%.
Turning to “si419H: chemically modified si419 duplex: 2′-O-methyl and inverted abasic ribose on passenger strand (SEQ ID NO:11; guide SEQ ID NO:12) (sense GGACAAGCUGAGCAAGAUU; antisense AAUCUUGCUCAGCUUGUCCUU; siRNA; sense: sugars from the 5' end r17 m2, [iaB] at 5' end, 3' end, backbone not given here; antisense: sugars from the 5' end r16 d1 r4, [2sU] at 17, backbone not given here)”, the TWIST knockdown entry in the series on TWIST [1] (Ovcar8-IP, MSNs) is on record as “robust knockdown of TWIST even after 24 hours”. Moreover, the “knockdown (efficiency, FIG. 6)” value in the series with TWIST1 [2] was “approximately 80%”.
Take “si494: anti-TWIST siRNA; passenger 5′-GCGACGAGCUGGACUCCAA-3′ (SEQ ID No: 3), guide 5′-UUGGAGUCCAGCUCGUCGCUU-3′ (SEQ ID No: 4) (listed as RNA, chemistry not fully specified)”: in the series with N-Cadherin mRNA, the “N-Cadherin mRNA decrease” value is listed as “approximately 90%”. Further, the “TWIST1 knockdown (protein and mRNA)” value in the series with TWIST1 [3] was “slightly more knockdown than siTwistA”. The “Vimentin mRNA level” value in the series on Vimentin mRNA was “nearly undetectable”. The TWIST knockdown entry with TWIST [1] (A2780R and Ovcar8, loaded onto MSNs) is listed as “robust TWIST knockdown lasting one week post transfection”; in the series on TWIST [5] (A2780R) it was “successfully knocked down TWIST”; in the series with TWIST [5] (Ovcar8, double the usual dose (100 nM siRNA)) it was “minimal”. Also, the TWIST expression entry with TWIST [4] is given as “completely inhibit TWIST expression”.
